In series [1] the test system is Hoxa9, Hoxa10 and Myb mRNA levels. In words: Real-time RT-PCR of Setbp1(D/N) target genes in Setbp1(D/N)-immortalized cells. Type of series: cell-based, mouse. To be noted: for Setbp1 (D/N) target transcription levels of Hoxa9, Hoxa10 and Myb: Setbp1 (D/N)-immortalized cells, 12 hours post-treatment, 1 nM. On the procedure:
(§1) Cell Culture Studies of Immortalized Myeloid Progenitors. Mouse myeloid progenitors immortalized by 3×FLAG-tagged Setbp1 and Setbp1(D/N) were generated and maintained as previously described using pMYs-3×FLAG-Setbp1-IRES-GFP and pMYs-3×FLAG-Setbp1(D/N)-IRES-GFP viruses respectively (Oakley et al., Blood 119(25): 6099-6108 (2012). Lentiviral transduction of these immortalized cells was carried out by spinoculation in which a mixture of lentivirus and target cells was spun at 2000×g for 90 minutes at 37° C. Transduced cells were selected by treatment with puromycin (2 μg/ml) for 24 hours at 24 hours after lentiviral transduction. Colony formation assays for transduced cells were performed at 48 hours after infection using 1×10^4 puromycin-resistant cells on IMDM methylcellulose medium supplemented with 20% horse serum, mouse Scf (100 ng/ml) and II-3 (10 ng/ml), and puromycin (2 μg/ml) with colony numbers counted after 7 days. For studying effects of KPT-185 (Selleck Chemicals, Houston, TX) in liquid culture, immortalized cells were treated at 2.5×10^5 cells/ml concentration. Detection of apoptosis was performed using PE Annexin V Apoptosis Detection Kit (BD Biosciences). KPT-185 was directly added to methylcellulose medium for assessing its effects on colony formation by immortalized cells.
(§2) Real-Time RT-PCR. For real-time RT-PCR, total RNA was extracted from cells using Nucleospin RNA (Clontech, Duren, Germany). Oligo-dT-primed cDNA samples were prepared using Superscript III (Invitrogen), and real-time PCR analysis was performed in triplicates using SYBR green detection reagents (Invitrogen) on a QuantStudio real time PCR system (Applied Biosystems, Foster City, CA). Relative changes in expression were calculated according to the ΔΔCt method. The cycling conditions were 50° C. for 2 minutes followed by 95° C. for 2 minutes, and then 40 cycles of 95° C. for 15 seconds and 60° C. for 1 minute. […]

Series [2] relates to Setbp1(D/N)-immortalized myeloid progenitors. The experiment in a line: Apoptosis (Annexin V) and differentiation/cytotoxicity (cytospin) in Setbp1(D/N)-immortalized cells. Type of series: cell-based, mouse. To be noted: for differentiation/cytotoxicity: Setbp1 (D/N)-immortalized cells, 100 nM. As for the experimental part: as §1
For series [3], the system named is Hoxa9, Hoxa10 and Myb mRNA levels. The experiment in a line: Real-time RT-PCR of Setbp1 target genes in Setbp1-immortalized cells. Type of series: cell-based, mouse. Particulars: for Setbp1 target transcription levels of Hoxa9, Hoxa10 and Myb: 12 hours post-treatment, 1 nM. On the procedure:
as §1, §2

Series [4] deals with Setbp1-immortalized mouse myeloid progenitors. The experiment in a line: Colony formation on methylcellulose by Setbp1-immortalized myeloid progenitors. Particulars: for colony formation: Setbp1-immortalized cells, 1 nM, 5 nM, 10 nM, and 100 nM. Type of series: cell-based. As for the experimental part:
(§3) In Vitro and In Vivo Testing of Compound (1AA). The activity of Compound 1AA against myeloid neoplasms was first determined in vitro by assessing its inhibitory effect on the colony formation by Setbp1/Setbp1(D/N)-immortalized mouse myeloid progenitors on IMDM methylcellulose medium with 20% horse serum plus mouse Scf (50 ng/ml) and Il-3 (10 ng/ml). The in vivo activity of Compound 1AA was evaluated by assessing its capability to reduce spleen size and to extend the survival of mice transplanted with Setbp1(D/N)-induced leukemia cells. For the generation of leukemic mice, 5×10^5 spleen cells from a primary recipient mouse with Setbp1(D/N)-induced leukemia were injected into the tail vein of each sublethally irradiated (550 rads from a ^137Cs source) B6-Ly5.2 female mouse. Starting from day 10 after transplantation, the recipient mice were treated with Compound (1AA) (33 mg/kg, dissolved in saline) or saline through five intra-peritoneal injections. The activity of Compound 1AA against solid tumors is determined by assessing its growth inhibitory effects on different human solid tumor cell lines in culture. Specifically, cellular ATP levels of liquid cultures of these cell lines are measured at 72 hours after treatment with serially diluted concentrations of Compound 1AA and compared to untreated cells.
(§4) Cell Culture Studies of Immortalized Myeloid Progenitors. […]

For series [5], the system named is Setbp1-immortalized myeloid progenitor cells. The experiment in a line: Apoptosis (Annexin V) and differentiation/cytotoxicity (cytospin) in Setbp1-immortalized cells. Particulars: for differentiation/cytotoxicity: 100 nM. Type of series: cell-based, mouse. On the procedure:
as §1

Series [6] concerns Setbp1(D/N)-immortalized mouse myeloid progenitors. In words: Colony formation on methylcellulose by Setbp1(D/N)-immortalized myeloid progenitors. Particulars: for colony formation: Setbp1 (D/N)-immortalized cells, 1 nM. The series is classed as cell-based. On the procedure:
as §3, §4

Series [7] relates to Setbp1(D/N)-induced leukemia. The experiment in a line: Mice transplanted with Setbp1(D/N)-induced AML, treatment with KPT-330. Type of series: in vivo, mouse. On the procedure:
Bone Marrow Transplantation and In Vivo Treatment with KPT-330. For generation of leukemic mice, 1×10^6 spleen cells from a primary recipient mouse with Setbp1(D/N)-induced leukemia were injected into the tail vein of each lethally irradiated (1100 rads from a ^137Cs source) B6-Ly5.2 female mouse along with 7.5×10^5 supporting bone marrow cells from un-irradiated B6-Ly5.2 mice. Starting from day 7 after transplantation, the recipient mice were treated with KPT-330 (20 mg/kg, dissolved in 2% DMSO/49% PEG300/ddH2O) or vehicle through oral gavage once every two days. KPT-330 was purchased from Selleck Chemicals.

The subject of series [8] is Setbp1(D/N)-induced leukemia. In words: Mice transplanted with Setbp1(D/N)-induced AML, treatment with Compound (1AA). Type of series: in vivo, mouse. To be noted: 33 mg/kg, five intra-peritoneal injections from day 10 after transplantation, vs vehicle. As for the experimental part:
as §3

The target in series [9] is T1, interaction between Setbp1(D/N) and XPO1 (Mus musculus, UniProt Q9Z180, D859N).
T1 construct: expressed in transfected cells; host or cells: HEK293T
In words: Co-immunoprecipitation / Western blotting of nuclear extracts of transfected HEK293T cells. The series is classed as cell-based. To be noted: 1 μM, 10 μM and 25 μM, 12 hours, M2 immunoprecipitates. On the procedure: Western blotting analyses using indicated specific antibodies were performed on M2 immunoprecipitates prepared from nuclear extracts of HEK293T cells transiently transfected with pMYs-3×FLAG-Setbp1-IRES-GFP and subsequently treated with different concentrations of Compound (1AA) and control DMSO for 12 hours.
Immunoprecipitation. HEK293T cells were transfected with the indicated expression constructs using LipoD293 (SignaGen Laboratories, Rockville, MD) and nuclear extracts were isolated 48 hours after transfection using the Nuclear Complex Co-IP kit (Active Motif, Carlsbad, CA). Nuclear lysates were incubated with either 4 μg of anti-Flag M2 (Sigma Aldrich, St. Louis, MO) or anti-XPO1 (NB100-79802, Novus Biological, Centennial, CO) for 4 hours at 4° C. Subsequently, Dynabeads protein A (Invitrogen, Carlsbad, CA) were added to the nuclear lysate/antibody mixture and incubated for an additional 2 hours at 4° C. Immunoprecipitated proteins were eluted and analyzed by Western blotting analysis. For immunoprecipitation experiments using in vitro transcribed and translated proteins, the corresponding cDNAs were cloned into pCMV-TNT and the TnT T7 Coupled Wheat Germ Extract (Promega, Madison, WI) system was used according to the manufacturer's instructions.
Western Blotting Analysis. […]

T1 sequence (Q9Z180 whole entry D859N): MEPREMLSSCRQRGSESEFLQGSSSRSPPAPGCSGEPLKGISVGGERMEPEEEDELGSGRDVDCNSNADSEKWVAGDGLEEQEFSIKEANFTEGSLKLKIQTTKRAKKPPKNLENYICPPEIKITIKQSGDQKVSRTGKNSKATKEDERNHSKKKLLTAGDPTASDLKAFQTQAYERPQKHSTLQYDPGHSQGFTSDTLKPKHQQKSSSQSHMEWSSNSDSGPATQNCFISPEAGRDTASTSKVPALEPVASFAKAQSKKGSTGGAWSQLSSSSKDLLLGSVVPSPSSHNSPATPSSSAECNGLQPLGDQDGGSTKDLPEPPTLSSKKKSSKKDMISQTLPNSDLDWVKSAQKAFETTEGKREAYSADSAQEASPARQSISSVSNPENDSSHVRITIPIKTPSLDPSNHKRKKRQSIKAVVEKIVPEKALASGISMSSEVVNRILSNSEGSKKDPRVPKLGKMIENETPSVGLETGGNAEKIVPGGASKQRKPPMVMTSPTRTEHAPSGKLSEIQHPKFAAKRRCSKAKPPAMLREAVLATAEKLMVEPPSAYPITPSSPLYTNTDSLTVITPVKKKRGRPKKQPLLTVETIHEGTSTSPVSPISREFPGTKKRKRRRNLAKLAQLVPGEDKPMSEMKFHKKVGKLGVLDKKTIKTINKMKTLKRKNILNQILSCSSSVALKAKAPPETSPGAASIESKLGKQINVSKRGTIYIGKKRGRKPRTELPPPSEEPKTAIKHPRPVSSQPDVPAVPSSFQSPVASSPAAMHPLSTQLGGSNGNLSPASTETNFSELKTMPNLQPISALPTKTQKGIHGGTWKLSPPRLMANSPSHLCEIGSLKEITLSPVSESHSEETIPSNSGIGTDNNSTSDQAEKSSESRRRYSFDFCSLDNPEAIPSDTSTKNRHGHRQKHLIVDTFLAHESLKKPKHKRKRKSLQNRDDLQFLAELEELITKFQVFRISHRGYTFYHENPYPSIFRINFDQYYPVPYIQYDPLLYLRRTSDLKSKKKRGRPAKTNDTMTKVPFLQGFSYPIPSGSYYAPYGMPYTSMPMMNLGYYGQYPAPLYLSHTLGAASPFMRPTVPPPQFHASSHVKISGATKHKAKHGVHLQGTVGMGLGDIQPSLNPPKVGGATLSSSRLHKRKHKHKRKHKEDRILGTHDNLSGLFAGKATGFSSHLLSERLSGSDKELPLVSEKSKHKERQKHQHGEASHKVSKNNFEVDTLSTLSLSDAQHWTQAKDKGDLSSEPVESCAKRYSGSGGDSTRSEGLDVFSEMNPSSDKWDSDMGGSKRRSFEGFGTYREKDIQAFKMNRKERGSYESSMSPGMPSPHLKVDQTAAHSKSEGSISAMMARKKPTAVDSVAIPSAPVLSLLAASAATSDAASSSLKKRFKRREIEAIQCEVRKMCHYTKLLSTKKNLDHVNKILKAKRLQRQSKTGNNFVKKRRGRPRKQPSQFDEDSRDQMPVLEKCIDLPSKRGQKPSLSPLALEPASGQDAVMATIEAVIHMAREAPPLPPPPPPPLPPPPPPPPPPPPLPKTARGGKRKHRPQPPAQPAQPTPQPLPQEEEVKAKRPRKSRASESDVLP

Take `COc1cc(-c2ncn(/C=C\C(=O)OC(C)C)n2)cc(C(F)(F)F)c1` [KPT-185, reference compound]: the “Hoxa9/Hoxa10/Myb mRNA levels” value in series [1] (Setbp1(D/N)-immortalized cells, 300 nM, 2.5 hours after treatment, vs DMSO) is recorded as “significantly down-regulated”; in series [3] (300 nM, 2.5 hours after treatment, vs DMSO) it was “significantly down-regulated”. The “apoptosis (Annexin V staining)” value in series [2] (Setbp1(D/N)-immortalized cells, 48 hours after treatment, vs DMSO) is given as “induces apoptosis”; in series [5] (48 hours after treatment, vs DMSO) it was “induces apoptosis”. The “differentiation (cytospin)” value in series [2] (Setbp1(D/N)-immortalized cells, 72 hours after treatment) was “induces apoptosis and differentiation”. In addition, the relative colony-forming potential result in series [4] (Setbp1-immortalized myeloid progenitors, indicated concentrations, vs DMSO) is reported as “significantly reduces colony-forming potential”; in series [6] (Setbp1(D/N)-immortalized myeloid progenitors, indicated concentrations, vs DMSO), “significantly reduces colony-forming potential”. Also, in series [5] (72 hours after treatment), the “differentiation: number of mature neutrophils (cytospin)” value is listed as “significantly increase”.
On to `Nc1ccc(Cn2ccc3c4c(N)nc(N)nc4ccc32)cc1` [Compound (2AA)], for which, in [1] (50 nM, 100 nM and 300 nM), the “Setbp1 (D/N) target transcription levels of Hoxa9, Hoxa10 and Myb” value is listed as “reduces Setbp1 (D/N) target transcription levels”. Also, the differentiation/cytotoxicity entry in [2] and in series [5] was “induces differentiation/cytotoxicity” in each case. The “Setbp1 target transcription levels of Hoxa9, Hoxa10 and Myb” value in series [3] (50 nM, 100 nM and 300 nM) is reported as “reduces Setbp1 target transcription levels”. Further, the colony formation result in [4] is on record as “inhibits colony formation”; in series [6] (10 nM, 50 nM, 100 nM, 300 nM and 500 nM), “inhibits colony formation”.
In the case of `O=C(/C=C\n1cnc(-c2cc(C(F)(F)F)cc(C(F)(F)F)c2)n1)NNc1cnccn1` [KPT-330], in [7] (20 mg/kg oral gavage every 2 days from day 7, vehicle mice moribund in 17 days), the “extension of survival time” value is on record as at most 50%. Also, the “survival of transplanted mice” value in [7] (20 mg/kg oral gavage every 2 days from day 7 after transplantation, vs vehicle, p=0.012, Log-rank test) is “prolonged the survival”.
Take `Cc1c2cc[n+](CCN3CCCCC3)cc2c(C)c2c1[nH]c1ccc(O)cc12.[Br-]` [Compound (1AA)]: in series [1] (10 nM, 100 nM and 500 nM), the “Setbp1 (D/N) target transcription levels of Hoxa9, Hoxa10 and Myb” value is given as “reduces Setbp1 (D/N) target transcription levels”. Besides, the “spleen size (spleen weights when moribund)” value in series [8] is on record as “reduced the spleen size”. Besides, the “survival of leukemic mice” value in series [8] (p=0.0034, Log-rank test) was “significantly extended the survival”. Besides, the differentiation/cytotoxicity entry in series [2] and in series [5] was “induces differentiation/cytotoxicity” in each case. Moreover, the “Setbp1 target transcription levels of Hoxa9, Hoxa10 and Myb” value in series [3] (10 nM, 100 nM and 500 nM) is listed as “reduces Setbp1 target transcription levels”. Besides, the colony formation result is listed as “inhibits colony formation” in [4]; “inhibits colony formation” in series [6] (5 nM, 10 nM, and 100 nM). For the same molecule, in [9], the “interaction between Setbp1(D/N) and XPO1” value is “disrupts the interaction”.
